Experiment [1] is described as follows: in vitro assay (not specified) of separated enantiomers. The conditions noted are these: enantiomers separated by chiral HPLC. An excerpt: Compound (6) was separated by chiral HPLC: […]® OD with 85% hexane and 15% ethanol at rt. The (+)-7-(5-methyl-1H-imidazol-4-ylmethyl)-5,6,7,8-tetrahydro-quinoline (8) corresponding to the second eluting peak was active in an in vitro assay.

A further experiment has as its target T1, Alpha 2B (Homo sapiens, UniProt P18089).
T1 construct: expressed in transfected cells; host or cells: NIH-3T3
T1 sequence (P18089 1-450): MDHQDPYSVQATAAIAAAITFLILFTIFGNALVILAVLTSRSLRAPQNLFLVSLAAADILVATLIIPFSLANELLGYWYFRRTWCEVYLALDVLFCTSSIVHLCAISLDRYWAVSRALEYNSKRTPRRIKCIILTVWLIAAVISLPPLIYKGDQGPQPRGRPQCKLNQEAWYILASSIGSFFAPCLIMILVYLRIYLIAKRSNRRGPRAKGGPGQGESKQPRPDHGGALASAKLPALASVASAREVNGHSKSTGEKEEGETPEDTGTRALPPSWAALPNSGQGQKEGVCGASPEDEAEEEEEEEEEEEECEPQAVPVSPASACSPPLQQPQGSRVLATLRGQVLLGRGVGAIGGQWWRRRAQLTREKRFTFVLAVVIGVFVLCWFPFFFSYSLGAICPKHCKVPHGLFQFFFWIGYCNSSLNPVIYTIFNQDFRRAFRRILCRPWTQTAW
The experiment can be described thus: RSAT assay, Alpha 2B receptor. Type of experiment: cell-based. The note with it: for EC50: RSAT, transfected NIH-3T3 cells, coexpressed Gq/i5; for Alpha 2B (IA) intrinsic activity: ratio of maximal effect to that of standard full agonist brimonidine. As for the experimental part:
(§1) The RSAT assay measures a receptor-mediated loss of contact inhibition that results in selective proliferation of receptor-containing cells in a mixed population of confluent cells. The increase in cell number is assessed with an appropriate transfected marker gene such as […]-galactosidase, the activity of which can be easily measured in a 96-well format. Receptors that activate the G protein, Gq, elicit this response. Alpha2 receptors, which normally couple to Gi, activate the RSAT response when coexpressed with a hybrid Gq protein that has a Gi receptor recognition domain, called Gq/i5.
(§2) NIH-3T3 cells are plated at a density of 2×10^6 cells in 15 cm dishes and maintained in Dulbecco's modified Eagle's medium supplemented with 10% calf serum. One day later, cells are cotransfected by calcium phosphate precipitation with mammalian expression plasmids encoding p-SV-β-galactosidase (5-10 μg), receptor (1-2 μg) and G protein (1-2 μg). 40 μg salmon sperm DNA may also be included in the transfection mixture. Fresh media is added on the following day and 1-2 days later, cells are harvested and frozen in 50 assay aliquots. Cells are thawed and 100 μl added to 100 μl aliquots of various concentrations of drugs in triplicate in 96-well dishes. Incubations continue 72-96 hr at 37° C. After washing with phosphate-buffered saline, β-galactosidase enzyme activity is determined by adding 200 μl of the chromogenic substrate (consisting of 3.5 mM o-nitrophenyl-β-D-galactopyranoside and 0.5% nonidet P-40 in phosphate buffered saline), incubating overnight at 30° C. and measuring optical density at 420 nm. The absorbance is a measure of enzyme activity, which depends on cell number and reflects a receptor-mediated cell proliferation. The efficacy or intrinsic activity is calculated as a ratio of the maximal effect of the drug to the maximal effect of a standard full agonist for each receptor subtype. Brimonidine, also called UK14304, the chemical structure of which is shown below, is used as the standard agonist for the alpha2A, alpha2B and alpha2C receptors. The EC50 is the concentration at which the drug effect is half of its maximal effect.
(§3) The results of the RSAT assay with several exemplary compounds of the invention are disclosed in Table 1 above together with the chemical formulas of these exemplary compounds. EC50 values are nanomolar. NA stands for “not active” at concentrations less than 10 micromolar. IA stands for “intrinsic activity.”

Another experiment deals with T2, Alpha 1A (Homo sapiens, UniProt P35348).
T2 construct: expressed in transfected cells; host or cells: NIH-3T3
T2 sequence (P35348 1-466): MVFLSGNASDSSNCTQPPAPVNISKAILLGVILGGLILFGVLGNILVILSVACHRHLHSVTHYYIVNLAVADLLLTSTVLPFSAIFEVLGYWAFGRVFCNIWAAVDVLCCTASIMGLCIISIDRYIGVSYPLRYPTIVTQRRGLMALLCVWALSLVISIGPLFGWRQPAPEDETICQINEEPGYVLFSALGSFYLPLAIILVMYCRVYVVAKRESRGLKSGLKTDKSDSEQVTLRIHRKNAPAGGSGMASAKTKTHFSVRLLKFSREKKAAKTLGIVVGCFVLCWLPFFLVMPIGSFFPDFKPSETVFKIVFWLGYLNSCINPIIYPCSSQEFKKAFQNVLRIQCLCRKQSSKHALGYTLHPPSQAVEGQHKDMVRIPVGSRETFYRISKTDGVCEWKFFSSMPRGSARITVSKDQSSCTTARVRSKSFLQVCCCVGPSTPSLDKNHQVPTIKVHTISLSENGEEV
Put plainly: RSAT assay, Alpha 1A receptor. The conditions noted are these: for EC50: RSAT, transfected NIH-3T3 cells; for Alpha 1A (IA) intrinsic activity: ratio of maximal effect of drug to maximal effect of standard full agonist. The format is cell-based. As for the experimental part:
as §1, §2, §3

The next experiment concerns the target T3, Alpha 2A (Homo sapiens, UniProt P08913).
T3 construct: expressed in transfected cells; host or cells: NIH-3T3
T3 sequence (P08913 1-465): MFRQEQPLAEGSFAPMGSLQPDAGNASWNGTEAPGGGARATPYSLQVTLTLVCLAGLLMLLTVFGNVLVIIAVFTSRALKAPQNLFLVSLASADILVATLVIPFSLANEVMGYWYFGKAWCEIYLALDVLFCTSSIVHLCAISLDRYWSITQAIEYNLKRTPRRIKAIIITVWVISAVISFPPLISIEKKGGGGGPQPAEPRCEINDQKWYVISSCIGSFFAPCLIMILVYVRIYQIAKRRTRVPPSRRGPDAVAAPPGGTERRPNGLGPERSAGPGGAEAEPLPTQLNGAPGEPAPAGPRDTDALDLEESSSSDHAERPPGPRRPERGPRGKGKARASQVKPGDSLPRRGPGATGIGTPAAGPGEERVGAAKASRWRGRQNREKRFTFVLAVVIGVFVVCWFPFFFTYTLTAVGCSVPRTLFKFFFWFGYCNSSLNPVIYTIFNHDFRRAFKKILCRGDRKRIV
Put plainly: RSAT assay, Alpha 2A receptor. Type of experiment: cell-based. The conditions noted are these: transfected NIH-3T3 cells, coexpressed Gq/i5. As for the experimental part: as §1
NIH-3T3 cells are plated at a density of 2×10^6 cells in 15 cm dishes and maintained in Dulbecco's modified Eagle's medium supplemented with 10% calf serum. […] After washing with phosphate-buffered saline, β-galactosidase enzyme activity is determined by adding 200 μl of the chromogenic substrate (consisting of 3.5 mM o-nitrophenyl-β-D-galactopyranoside and 0.5% nonidet P-40 in phosphate buffered saline), incubating overnight at 30° C. and measuring optical density at 420 nm. The absorbance is a measure of enzyme activity, which depends on cell number and reflects a receptor-mediated cell proliferation. The efficacy or intrinsic activity is calculated as a ratio of the maximal effect of the drug to the maximal effect of a standard full agonist for each receptor subtype. […]

The target in another experiment is T4, Alpha 2C (Homo sapiens, UniProt P18825).
T4 construct: expressed in transfected cells; host or cells: NIH-3T3
T4 sequence (P18825 1-462): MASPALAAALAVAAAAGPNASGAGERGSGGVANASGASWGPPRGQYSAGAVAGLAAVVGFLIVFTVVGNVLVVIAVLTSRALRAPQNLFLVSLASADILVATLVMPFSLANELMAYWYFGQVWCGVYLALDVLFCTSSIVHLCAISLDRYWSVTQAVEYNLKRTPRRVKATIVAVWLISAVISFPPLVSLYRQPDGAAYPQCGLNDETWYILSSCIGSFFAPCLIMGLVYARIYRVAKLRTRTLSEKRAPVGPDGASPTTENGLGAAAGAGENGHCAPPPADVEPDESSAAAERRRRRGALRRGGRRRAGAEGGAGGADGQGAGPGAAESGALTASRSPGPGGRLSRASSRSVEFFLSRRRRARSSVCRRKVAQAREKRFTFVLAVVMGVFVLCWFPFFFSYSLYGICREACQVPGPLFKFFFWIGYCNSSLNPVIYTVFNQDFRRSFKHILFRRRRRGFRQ
The experiment can be described thus: RSAT assay, Alpha 2C receptor. Type of experiment: cell-based. The note with it: for EC50: RSAT, transfected NIH-3T3 cells, coexpressed Gq/i5; for Alpha 2C (IA) intrinsic activity: ratio of maximal effect to that of standard full agonist brimonidine. As for the experimental part: as §1, §2, §3

Consider four molecules from patent publication US7868020B2, “Quinolynylmethylimidizoles as therapeutic agents” (Allergan, Inc., priority 2007, dated 2011).

On to `Cc1[nH]cnc1CC1CCc2cccnc2C1` (single isomer, unassigned; (+)) [Compound 8, (+)-7-(5-methyl-1H-imidazol-4-ylmethyl)-5,6,7,8-tetrahydro-quinoline], for which, in experiment [1], the “activity in an in vitro assay” value is “active”.

For the molecule `Cc1[nH]cnc1CC1CCc2cccnc2C1` (single isomer, unassigned; (-)) [Compound 7, (−)-7-(5-methyl-1H-imidazol-4-ylmethyl)-5,6,7,8-tetrahydro-quinoline], the “activity in an in vitro assay” value in experiment [1] was “inactive”.

For the molecule `Cc1[nH]cnc1CC1CCc2cccnc2C1` (stereo not shown) [drawing 15], on Alpha 2B, a half-maximal effect (EC50) was put at 0.057 µM and the “Alpha 2B (IA) intrinsic activity” value was determined as 0.32. At Alpha 1A, the EC50 turned out to be 3.34 µM and the “Alpha 1A (IA) intrinsic activity” value is listed as 0.66. At Alpha 2A, this molecule registered an EC50 of more than 10 µM. For the same molecule, at Alpha 2C, it took 0.207 µM to reach a half-maximal effect (EC50) and the “Alpha 2C (IA) intrinsic activity” value came to 0.63.

For the molecule `Cc1[nH]cnc1CC1CCc2cccnc2C1` (stereo not shown) [drawing 16], at Alpha 2B, the EC50 amounted to 0.037 µM and the “Alpha 2B (IA) intrinsic activity” value came to 0.7. On Alpha 1A, the response was half-maximal at 0.876 µM (EC50) and the “Alpha 1A (IA) intrinsic activity” value is recorded as 0.66. At Alpha 2A, this molecule showed an EC50 of more than 10 µM. Besides, at Alpha 2C, it took 0.366 µM to reach a half-maximal effect (EC50) and the “Alpha 2C (IA) intrinsic activity” value stood at 0.47.

As usually defined, the EC50 is the concentration at which the effect is half-maximal. Low values mean an effect from little substance, high ones a need for much substance.
